Assay results from patent US6677488B2, “Substituted biphenyl compounds for the treatment of inflammation” (G.D. Searle & Co., priority 1995, dated 2004).

Row | SMILES | melting point
1 | Cc1ccc(-c2cc(F)c(F)cc2-c2ccc(S(C)(=O)=O)cc2)cn1 [Example 47, 5-[4,5-Difluoro-4′-(methylsulfonyl)-(1,1′-biphenyl)-2-yl]-2-methylpyridine] | 141 to 142.5 °C
2 | Cc1ccc(-c2cc(F)c(F)cc2-c2ccc(S(N)(=O)=O)cc2)cn1 [Example 48, 4-[4,5-Difluoro-2-(6-methylpyridin-3-yl)phenyl]benzenesulfonamide] | > 96 °C (dec.)
